9 molecules from PubChem BioAssay (NCI) can be followed below.

Holding throughout (experiment): NCI-60 cell line screen, 48 h
The subject of assay [1] is NCI-H23 lung.
Assay [2] has as its system SF-295 CNS.
The subject of assay [3] is SK-OV-3 ovarian.
Assay [4] concerns OVCAR-3 ovarian.
Assay [5] concerns HL-60(TB) leukemia.
Assay [6] has as its system PC-3 prostate.
The test system of assay [7] is SK-MEL-5 melanoma.
Assay [8] concerns HOP-92 NSCLC.
Assay [9] has as its system NCI-H460 lung.
In assay [10] the test system is HCC-2998 colon.

SMILES strings stand for the structures.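 Protocol summary: plate cells (96-well), add compound at 5 concentrations, incubate 48 h, interpolate endpoints linearly. GI50: concentration for 50% inhibition of growth. TGI: concentration producing complete growth inhibition.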

Regarding `COc1ccc(-c2nc(-c3ccc(C)cc3)cn3ccnc23)cc1`, the GI50 in assay [1] was more than 50 µM; in [2], 3.69 µM; in assay [3], 33.5 µM; in assay [4], 4.46 µM; in assay [5], 2.58 µM; in assay [6], 4.44 µM. In addition, the GI50 is 1.68 µM in assay [7], 16.2 µM in assay [8], 2.53 µM in assay [9] and 11.8 µM in assay [10]. The TGI in assay [1], in [2], in [3], in [4], in [5] and in assay [6] was more than 50 µM throughout. Besides, the TGI in assay [7] was 5.2 µM; in [8], more than 50 µM; in assay [9] it was 20.1 µM; in [10], more than 50 µM.

Take `O=C(/C=C\c1ccc([N+](=O)[O-])cc1)c1ccccc(=O)c1O`: the TGI in [1] amounted to 12.4 µM; in [2], 14.7 µM; in assay [3], 17.2 µM; in assay [4] it was 14.4 µM; in [5] it was 1.63 µM; in assay [6], 9.84 µM. In addition, the TGI in assay [7] worked out at 2.38 µM; in assay [8] it was 7.77 µM; in [9], 3.64 µM; in [10], 5.6 µM.

With `CCc1ccc(CCC(=O)Nc2ncc(Cc3ccc(Cl)cc3)s2)o1`, the GI50 in [1] was 1.53 µM; in [2], 0.374 µM; in [3], 0.449 µM; in [4], 0.248 µM; in [5], 0.289 µM; in [6] it was 0.403 µM. The GI50 in [7] is 0.377 µM; in assay [8], 4.61 µM; in [9], 0.335 µM; in [10], 0.812 µM. The TGI in assay [1] is more than 100 µM; in [2], more than 100 µM; in [3] it was more than 100 µM; in assay [4], 0.682 µM; in assay [5], 1.93 µM; in [6], more than 100 µM. The TGI in assay [7], in assay [8], in assay [9] and in [10] was more than 100 µM throughout.

Take `O=S(=O)(NNc1ccccc1)c1ccccc1`: the TGI was more than 100 µM in assay [1]; 25.4 µM in [2]; more than 100 µM in [3]; 58.7 µM in assay [4]; 13.5 µM in [5]; 22.9 µM in assay [6]. The TGI is 12.7 µM in [7], 55.4 µM in [8], 21.2 µM in assay [9] and more than 100 µM in [10].

With `Nc1ccc(C2=CC(c3ccc(Cl)cc3)N3C=CSC3=N2)cc1` (stereo unspecified), the GI50 in [1] is 17.8 µM; in [2] it was 13.1 µM; in assay [3] it was 5.07 µM; in assay [4], 2.79 µM; in assay [5], 6.13 µM; in [6], 8.8 µM. Further, the GI50 in [7] is 5.67 µM; in [8], 17.7 µM; in assay [9] it was 20.2 µM; in assay [10], 1.83 µM. Moreover, the TGI in assay [1] was 46.8 µM; in [2], 40.4 µM; in assay [3], 25.5 µM; in assay [4], 7.43 µM; in assay [5], 53.5 µM; in assay [6], more than 100 µM. The TGI in assay [7] is 19.2 µM; in [8], 72.4 µM; in [9], more than 100 µM; in assay [10], 3.61 µM.

Regarding `COc1ccc(C/C(=C(\C)c2ccc(OCCN3CCCC3)cc2)c2ccc(OCCN3CCCC3)cc2)cc1`, the GI50 in assay [1] was 3.67 µM; in assay [2] it was 1.76 µM; in [3], 1.86 µM; in assay [4], 2 µM; in assay [5] it was 1.67 µM; in assay [6], 1.75 µM. Besides, the GI50 was 1.72 µM in [7], 1.96 µM in assay [8], 2.08 µM in assay [9] and 1.74 µM in assay [10]. For the same molecule, the TGI stood at 14.1 µM in [1]; 3.47 µM in assay [2]; 3.68 µM in assay [3]; 3.87 µM in assay [4]; 3.63 µM in assay [5]; 4.07 µM in assay [6]. Moreover, the TGI in [7] was determined as 3.11 µM; in assay [8], 8.25 µM; in assay [9], 4.17 µM; in assay [10], 3.19 µM.

On to `CCC(C)[C@H](NC(=O)Nc1cc(C(F)(F)F)cc(C(F)(F)F)c1)C(=O)N[C@@H](Cc1cn(C)cn1)C(=O)OC` (stereo partly specified), for which the GI50 in assay [1] was 6.15 µM; in assay [2], 1.36 µM; in [3], 1.38 µM; in [4], 0.621 µM; in [5] it was 1.35 µM; in assay [6], 0.715 µM. For the same molecule, the GI50 in assay [7] is 0.59 µM; in assay [8] it was 1.31 µM; in assay [9], 0.895 µM; in assay [10] it was 0.696 µM. Besides, the TGI came to 1.95 µM in assay [2]; 1.82 µM in assay [3]; 1.14 µM in assay [4]; 3.22 µM in assay [5]; 1.77 µM in assay [6]; 1.27 µM in assay [7]. Moreover, the TGI in [8] was found to be 1.89 µM; in [9] it was 1.89 µM; in assay [10] it was 1.35 µM.

As for `CCN(CC)CCCNc1cc(OC)cc2nc3cc(Cl)ccc3nc12`, the GI50 in assay [1] is 1.79 µM; in assay [2], 2.33 µM; in assay [3] it was 3.6 µM; in assay [4] it was 2.06 µM; in assay [5], 2.22 µM; in [6] it was 1.97 µM. For the same molecule, the GI50 in assay [7] is 1.59 µM; in assay [8], 1.69 µM; in [9] it was 1.83 µM; in [10], 1.47 µM. For the same molecule, the TGI in [1] stood at 4.32 µM; in [2] it was 6.48 µM; in assay [3], 14.6 µM; in assay [4], 5.9 µM; in assay [5], 6.66 µM; in [6] it was 7.43 µM. For the same molecule, the TGI in assay [7] was 2.96 µM; in [8] it was 9.5 µM; in assay [9], 10.3 µM; in assay [10], 2.92 µM.

On to `CC1CC[P+](c2ccccc2)(c2ccccc2)c2c1ccc1ccccc21` (stereo unspecified), for which the TGI in assay [1] was 9.78 µM; in [2] it was 20.3 µM; in [3], 16.4 µM; in [4], more than 58.8 µM; in assay [5], 21.4 µM; in [6] it was 7.34 µM. Moreover, the TGI was found to be 5.16 µM in assay [7], 5.43 µM in [8], 10.1 µM in assay [9] and 41.9 µM in assay [10]. For the same molecule, the GI50 was 2.73 µM in assay [3] and 3.09 µM in assay [4].
